Twelve compounds from patent US5814631A, “Quinazoline derivatives and applications thereof” (Suntory Limited, priority 1995, dated 1998) can be followed below.

The assay addresses T1, human heart chymase (Homo sapiens, UniProt P23946).
T1 sequence (P23946 22-247): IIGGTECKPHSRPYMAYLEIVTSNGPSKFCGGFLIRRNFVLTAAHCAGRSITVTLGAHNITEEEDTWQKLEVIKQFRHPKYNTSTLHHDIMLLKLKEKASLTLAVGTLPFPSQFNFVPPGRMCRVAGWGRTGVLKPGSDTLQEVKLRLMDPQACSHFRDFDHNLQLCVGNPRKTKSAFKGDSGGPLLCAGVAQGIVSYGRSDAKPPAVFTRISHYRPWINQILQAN
The assay is described as follows: biochemical. The following applies: Chymase inhibitive activity (IC50), Ang I substrate, 37° C., 30 min, pH 7.5.

pIC50: −log10 of the molar value.

Procedure: That is, to 10 μl of a 20 mM trisphosphate buffer (pH 7.5) containing 2MKCl were added 10 μl of purified chymase and 5 μl of a dimethylsulfoxide (hereinafter referred to as DMSO) solution of the test sample. The mixture was preincubated at 37° C. for 10 minutes, then 25 μl of a 1 mM Ang I solution was added and the mixture preincubated at 37° C. for 30 minutes. Next, 50 μl of 30% acetic acid was added to stop the enzymatic reaction. At the same time, a blind test was performed by adding, instead of the test sample solution, 5 μl of DMSO and performing the same reaction.
The reacted solution was subjected to high performance liquid chromatography using Develosil ODS-5 (made by Nomura Kagaku, .phi.4.6 mm×150 mm) and developed at a flow rate of 2.0 ml/min in 0.05% TFA by a straight concentration gradient raising the acetonitrile from 0% to 60% over 10 minutes. This was monitored by the absorbance at 210 nm and the peaks identified by comparison with standard samples of Ang I and Ang II. The peak areas were measured by an integrating meter to quantitatively analyze the Ang I and Ang II and calculate the chymase activity.

`O=C(Cn1c(=O)n(S(=O)(=O)c2ccc(Cl)cc2)c(=O)c2ccc(Cl)cc21)Nc1ccccc1` [Example 38, [7-chloro-3-(4-chlorobenzenesulfonyl)-2,4(1H,3H)-quinazolinedion-1-yl]-N-phenylacetamide] gave a pIC50 of 7.20.
For the compound `O=C(Cn1c(=O)n(S(=O)(=O)c2ccc(Cl)cc2)c(=O)c2ccc(Cl)cc21)Nc1ccc(O)cc1` [Example 39, [7-chloro-3-(4-chlorobenzenesulfonyl)-2,4(1H,3H)-quinazolinedion-1-yl]-N-(4-hydroxyphenyl)acetamide], the pIC50 is 7.19.
For `O=C(Cn1c(=O)n(S(=O)(=O)c2ccc(Cl)cc2)c(=O)c2ccc(Cl)cc21)Nc1cccc(O)c1` [Example 40, [7-chloro-3-(4-chlorobenzenesulfonyl)-2,4(1H,3H)-quinazolinedion-1-yl]-N-(3-hydroxyphenyl)acetamide] the value was 6.96.
For `O=C(Cn1c(=O)n(S(=O)(=O)c2ccc(Cl)cc2)c(=O)c2ccc(Cl)cc21)Nc1ccccc1O` [Example 41, [7-chloro-3-(4-chlorobenzenesulfonyl)-2,4(1H,3H)-quinazolinedion-1-yl]-N-(2-hydroxyphenyl)acetamide] the value was 6.51.
For `O=C(Cn1c(=O)n(S(=O)(=O)c2ccc(Cl)cc2)c(=O)c2ccc(Cl)cc21)Nc1ccc(C(=O)O)cc1` [Example 43, [7-chloro-3-(4-chlorobenzenesulfonyl)-2,4(1H,3H)-quinazolinedion-1-yl]-N-(4-carboxyphenyl)-acetamide] the value was 6.38; for `O=C(Cn1c(=O)n(S(=O)(=O)c2ccc(Cl)cc2)c(=O)c2ccc(Cl)cc21)Nc1ccc(CN2CCOCC2)cc1` [Example 44, [7-chloro-3-(4-chlorobenzenesulfonyl)-2,4(1H,3H)-quinazolinedion-1-yl]-N-(4-morpholinomethylphenyl)acetamide], 6.25.
In turn, `NCc1ccc(NC(=O)Cn2c(=O)n(S(=O)(=O)c3ccc(Cl)cc3)c(=O)c3ccc(Cl)cc32)cc1` [Example 46, [7-chloro-3-(4-chlorobenzenesulfonyl)-2,4(1H,3H)-quinazolinedion-1-yl]-N-(4-aminomethylphenyl)acetamide] showed a pIC50 of 6.49.
For `N[C@@H](CC(=O)O)C(=O)NCc1ccc(NC(=O)Cn2c(=O)n(S(=O)(=O)c3ccc(Cl)cc3)c(=O)c3ccc(Cl)cc32)cc1` [Example 48, [7-chloro-3-(4-chlorobenzenesulfonyl)-2,4(1H,3H)-quinazolinedion-1-yl]-N-(4-α-L-aspartylaminomethylphenyl)acetamide] the value was 6.30; for `N[C@@H](CC(=O)NCc1ccc(NC(=O)Cn2c(=O)n(S(=O)(=O)c3ccc(Cl)cc3)c(=O)c3ccc(Cl)cc32)cc1)C(=O)O` [Example 50, [7-chloro-3-(4-chlorobenzenesulfonyl)-2,4(1H,3H)-quinazolinedion-1-yl]-N-(4-β-L-aspartylaminomethylphenyl)acetamide], 6.48; for `N[C@@H](CC(=O)NCc1cccc(NC(=O)Cn2c(=O)n(S(=O)(=O)c3ccc(Cl)cc3)c(=O)c3ccc(Cl)cc32)c1)C(=O)O` [Example 52, [7-chloro-3-(4-chlorobenzenesulfonyl)-2,4(1H,3H)-quinazolinedion-1-yl]-N-(3-β-L-aspartylaminomethylphenyl)acetamide], 6.96.
In turn, `O=C(Cn1c(=O)n(S(=O)(=O)c2ccc(Cl)cc2)c(=O)c2ccc(Cl)cc21)Nc1cccnc1` [Example 53, [7-chloro-3-(4-chlorobenzenesulfonyl)-2,4(1H,3H)-quinazolinedion-1-yl]-N-(3-pyridyl)acetamide] had a pIC50 of 7.30.
For `O=C(Cn1c(=O)n(S(=O)(=O)c2ccc(Cl)cc2)c(=O)c2ccc(Cl)cc21)Nc1ccncc1` [Example 54, [7-chloro-3-(4-chlorobenzenesulfonyl)-2,4(1H,3H)-quinazolinedion-1-yl]-N-(4-pyridyl)acetamide] the value was 7.47.

The term pIC50 denotes −log10 of the IC50, conventionally taken in molar units. A high value points to a small IC50.
